Reference: PubChem BioAssay (NCI)
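Method: 48-hour compound exposure of cells in 96-well plates, five concentrations, linear interpolation of endpoints. GI50 is the concentration that inhibits growth by half. TGI denotes the concentration required for complete inhibition of growth.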

Experiments:
Experiment in all cases: NCI-60 cell line screen, 48 h
EKVX NSCLC = tested on: EKVX NSCLC
HT29 colon = tested on: HT29 colon
MALME-3M melanoma = tested on: MALME-3M melanoma
OVCAR-8 ovarian = tested on: OVCAR-8 ovarian
PC-3 prostate = tested on: PC-3 prostate
RXF 393 renal = tested on: RXF 393 renal
SF-268 CNS = tested on: SF-268 CNS
SK-MEL-28 melanoma = tested on: SK-MEL-28 melanoma
SNB-19 CNS = tested on: SNB-19 CNS
OVCAR-4 ovarian = tested on: OVCAR-4 ovarian

| SMILES | TGI (EKVX NSCLC) [µM] | TGI (HT29 colon) [µM] | TGI (MALME-3M melanoma) [µM] | TGI (OVCAR-8 ovarian) [µM] | TGI (PC-3 prostate) [µM] | TGI (RXF 393 renal) [µM] | TGI (SF-268 CNS) [µM] | TGI (SK-MEL-28 melanoma) [µM] | TGI (SNB-19 CNS) [µM] | TGI (OVCAR-4 ovarian) [µM] | GI50 (MALME-3M melanoma) [µM] | GI50 (OVCAR-8 ovarian) [µM] | GI50 (PC-3 prostate) [µM] | GI50 (RXF 393 renal) [µM] | GI50 (SF-268 CNS) [µM] | GI50 (SK-MEL-28 melanoma) [µM] | GI50 (SNB-19 CNS) [µM] | GI50 (EKVX NSCLC) [µM] | GI50 (HT29 colon) [µM] | GI50 (OVCAR-4 ovarian) [µM] |
| --- | --- | --- | --- | --- | --- | --- | --- | --- | --- | --- | --- | --- | --- | --- | --- | --- | --- | --- | --- | --- |
| CC(C)OC(=O)NNc1c(Cl)cc(Cl)cc1Cl | > 100 | > 100 | 74.2 | > 100 | > 100 | 69.5 | > 100 | > 100 | > 100 |  |  |  |  |  |  |  |  |  |  |  |
| CCOC(=O)N1C/C(=C\c2ccc(N(C)C)cc2)C(=O)/C(=C/c2ccc(N(C)C)cc2)C1 | > 100 | > 100 | > 100 | > 100 |  | > 100 | > 100 | > 100 | > 100 | > 100 |  |  |  |  |  |  |  |  |  |  |
| NNC(=O)C(=O)N/N=C1\CCCC1C(=O)CCC(=O)Nc1cccc(Cl)c1 (stereo not given) | > 100 | > 100 | > 100 | > 100 |  | > 100 | > 100 | > 100 | > 100 | > 100 |  |  |  |  |  |  |  |  |  |  |
| COC(=O)N1C=CC2=C(C)C3Nc4ccccc4C3C(C)=C2C1 (stereo not given) | > 100 | > 100 | 13.1 | 7.5 |  |  | 74.2 | > 100 | > 100 | 11.3 |  |  |  |  |  |  |  |  |  |  |
| CCCCCCCCCCCCNC(=S)OCCCC | > 100 | > 100 | > 100 | > 100 |  | > 100 | > 100 | > 100 | > 100 | > 100 |  |  |  |  |  |  |  |  |  |  |
| NC(=O)c1c(-c2ccccc2)c(-c2ccccc2)cc2c(=O)c3ccccc3[nH]c12 | > 100 | 42.9 | 37.1 | 50 |  |  | > 100 | 37.6 | 52.4 | 30.4 |  |  |  |  |  |  |  |  |  |  |
| O=C(Nc1cccc2[nH]c(C(F)(F)F)nc12)c1ccc(Br)cc1F |  |  | 6.82 | 15.6 | 10.4 | 9.12 | 21.4 | 16.4 | 14.6 |  | 2.86 | 3.14 | 2.75 | 3.1 | 4.17 | 4.76 | 3.79 |  |  |  |
| CC[C@@]1(O)C(=O)OCc2c1cc1n(c2=O)Cc2cc3c(N)c(OC)ccc3nc2-1 | > 100 | > 100 | 4.05 |  |  | 0.426 |  |  | > 61.9 | 1.36 | 0.236 |  |  | 0.0708 | 0.0152 | 0.466 | < 0.0238 | 0.574 | 0.205 | 0.229 |
| O=S(=O)(c1ccccc1)C1(C2(S(=O)(=O)c3ccccc3)CCN=N2)CCN=N1 (stereo not given) | > 100 | > 100 | > 100 | > 100 |  | > 100 | > 100 | > 100 | > 100 | > 100 |  |  |  |  |  |  |  |  |  |  |
| O=[N+]([O-])C(=C1c2ccccc2-c2ccccc21)[N+](=O)[O-] | > 100 | > 100 |  | > 100 |  | > 100 | 84.8 | > 100 | > 100 | > 100 |  |  |  |  |  |  |  |  |  |  |
| Cc1ccc(C)c(NC(=O)C(=O)C(C2C(C)CC(=O)C2CC(=O)O)[N+](=O)[O-])c1 (stereo not given) | > 100 | > 100 | > 100 |  |  | > 100 | > 100 | > 100 | > 100 | > 100 |  |  |  |  |  |  |  |  |  |  |
